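96-well plates; 48 h exposure; 5 concentrations. Endpoints by linear interpolation between flanking doses. Not reached: highest tested concentration assigned. Here, GI50 denotes the concentration required for 50% inhibition of growth. TGI is the concentration that stops growth completely.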
How the values were obtained:
Assay in all cases: growth of human tumour cells (NCI), 48 h
SK-MEL-5 melanoma = system: SK-MEL-5 melanoma
RXF 393 renal = system: RXF 393 renal
HOP-18 NSCLC = system: HOP-18 NSCLC
SNB-75 CNS = system: SNB-75 CNS
CAKI-1 renal = system: CAKI-1 renal
SK-MEL-2 melanoma = system: SK-MEL-2 melanoma
SW-620 colon = system: SW-620 colon
M14 melanoma = system: M14 melanoma
SNB-78 CNS = system: SNB-78 CNS
SNB-19 CNS = system: SNB-19 CNS
KM20L2 colon = system: KM20L2 colon
MDA-N = system: MDA-N

With `O=C(c1ccc(Cl)cc1)N(C(=S)N1CCN(c2ccccn2)CC1)C1CCCCC1` the TGI (SK-MEL-5 melanoma) was over 100 µM, the TGI (RXF 393 renal) was over 100 µM and the TGI (HOP-18 NSCLC) was over 100 µM. For the same compound, the TGI (SNB-75 CNS) was over 100 µM, the TGI (CAKI-1 renal) was over 100 µM and the TGI (SK-MEL-2 melanoma) was over 100 µM. For the same compound, the TGI (SW-620 colon) was over 100 µM, the TGI (M14 melanoma) was over 100 µM and the TGI (SNB-78 CNS) was over 100 µM. The TGI (SNB-19 CNS) was over 100 µM and the TGI (KM20L2 colon) was over 100 µM.
Compound `O=C(c1ccccc1)C1S(=O)(=O)OCCOS1(=O)=O` has a TGI (SK-MEL-5 melanoma) of over 100 µM, a TGI (SNB-75 CNS) of over 100 µM and a TGI (CAKI-1 renal) of over 100 µM. It also gave a TGI (SK-MEL-2 melanoma) of over 100 µM, a TGI (SW-620 colon) of over 100 µM and a TGI (M14 melanoma) of over 100 µM. The TGI (SNB-78 CNS) was over 100 µM and the TGI (SNB-19 CNS) was over 100 µM.
`CCOC(=O)/C(=C/c1ccc(C(=O)OC)cc1)N(CC)CC` showed a TGI (SK-MEL-5 melanoma) of over 100 µM, a TGI (CAKI-1 renal) of over 100 µM and a TGI (SK-MEL-2 melanoma) of over 100 µM. The TGI (SW-620 colon) was over 100 µM, the TGI (M14 melanoma) was over 100 µM and the TGI (SNB-78 CNS) was 91.7 µM. For the same compound, the TGI (SNB-19 CNS) was over 100 µM and the TGI (KM20L2 colon) was over 100 µM.
`O=C1C(Cl)=C(N(C(=O)c2ccccc2)C(=O)c2ccccc2)C(=O)c2ccccc21` was tested, and the TGI (SK-MEL-5 melanoma) was 12.4 µM, the TGI (RXF 393 renal) was 15.8 µM and the TGI (MDA-N) was 25.8 µM. The TGI (SNB-75 CNS) was 24 µM, the TGI (CAKI-1 renal) was 23.3 µM and the TGI (SK-MEL-2 melanoma) was 43.9 µM. The TGI (SW-620 colon) was 24.3 µM, the TGI (M14 melanoma) was over 100 µM and the TGI (SNB-19 CNS) was over 100 µM.
With `Cn1ncc2c(Cl)ncnc21` the TGI (SK-MEL-5 melanoma) was over 100 µM, the TGI (RXF 393 renal) was over 100 µM and the TGI (MDA-N) was over 100 µM. For the same compound, the TGI (SNB-75 CNS) was over 100 µM, the TGI (CAKI-1 renal) was over 100 µM and the TGI (SK-MEL-2 melanoma) was over 100 µM. It also gave a TGI (SW-620 colon) of over 100 µM, a TGI (M14 melanoma) of over 100 µM and a TGI (SNB-19 CNS) of over 100 µM.
Compound `CC(=O)Oc1ccc2c(c1)CC[C@@H]1C2[C@@H](O[N+](=O)[O-])C[C@@]2(C)C1CC[C@@H]2O[N+](=O)[O-]` (stereo partly specified) has a TGI (SK-MEL-5 melanoma) of 22.7 µM, a TGI (RXF 393 renal) of 23.7 µM and a TGI (MDA-N) of 28.2 µM. It also gave a TGI (SNB-75 CNS) of 28.7 µM, a TGI (CAKI-1 renal) of 33.6 µM and a TGI (SK-MEL-2 melanoma) of 31.5 µM. The TGI (SW-620 colon) was 33.1 µM, the TGI (M14 melanoma) was 31.6 µM and the TGI (SNB-19 CNS) was 32.4 µM.
`CCOC(=O)C(NC(=O)c1ccccc1)(N1CCN(c2cc3c(cc2F)c(=O)c(C(=O)O)cn3CC)CC1)C(F)(F)F` (stereo unspecified) showed a TGI (SK-MEL-5 melanoma) of 65.7 µM, a TGI (RXF 393 renal) of over 100 µM and a TGI (MDA-N) of over 100 µM. The TGI (SNB-75 CNS) was 90 µM, the TGI (CAKI-1 renal) was 48.4 µM and the TGI (SK-MEL-2 melanoma) was over 100 µM. The TGI (SW-620 colon) was over 100 µM, the TGI (M14 melanoma) was over 100 µM and the TGI (SNB-19 CNS) was over 100 µM.
`COc1cc(OC)c2c3c(OC)cc(OC)c4c(=O)c(O)c(C[C@@H](C)O)c(c5c(C[C@@H](C)O)c(O)c(=O)c1c25)c43` was tested, and the TGI (SK-MEL-5 melanoma) was 28.4 µM, the TGI (RXF 393 renal) was 73.1 µM and the TGI (MDA-N) was 34 µM. For the same compound, the TGI (SNB-75 CNS) was 62.1 µM, the TGI (CAKI-1 renal) was 53.2 µM and the TGI (SK-MEL-2 melanoma) was 68 µM. For the same compound, the TGI (SW-620 colon) was 35.6 µM, the TGI (M14 melanoma) was 47 µM and the TGI (SNB-19 CNS) was over 100 µM.
`CCOC(=O)Nc1ccc2c(c1)c(CCCCCCc1nc3ccccc3c3ccc(NC(=O)OCC)cc13)nc1ccccc12` showed a TGI (SK-MEL-5 melanoma) of over 100 µM, a TGI (RXF 393 renal) of over 100 µM and a TGI (MDA-N) of over 100 µM. It also gave a TGI (SNB-75 CNS) of 45.3 µM, a TGI (CAKI-1 renal) of over 100 µM and a TGI (SK-MEL-2 melanoma) of 71.2 µM. The TGI (SW-620 colon) was over 100 µM, the TGI (M14 melanoma) was 88.8 µM and the TGI (SNB-19 CNS) was over 100 µM.
`CC1CC/C(=C\c2ccc(F)cc2)C(=O)/C1=C/c1ccc(F)cc1` (stereo unspecified) gave a TGI (SK-MEL-5 melanoma) of 24.1 µM, a TGI (RXF 393 renal) of 9.98 µM and a TGI (MDA-N) of 13.5 µM. The TGI (SNB-75 CNS) was 11.7 µM, the TGI (CAKI-1 renal) was 12.1 µM and the TGI (SK-MEL-2 melanoma) was 25.6 µM. It also gave a TGI (SW-620 colon) of 87.6 µM, a TGI (M14 melanoma) of 39.4 µM and a TGI (SNB-19 CNS) of 35.5 µM.
In the case of `C=C(NC(=O)C(=C)NC(=O)c1csc(C2=NC3c4csc(n4)C4NC(=O)c5csc(n5)C(C(C)(O)C(C)O)NC(=O)C5CSC(=N5)/C(=C/C)NC(=O)C(C(C)O)NC(=O)c5csc(n5)C3(CC2)NC(=O)C(C)NC(=O)C(=C)NC(=O)C(C)NC(=O)C(C(C)CC)NC2C=Cc3c(C(C)O)cc(nc3C2O)C(=O)OC4C)n1)C(N)=O` (stereo unspecified), the TGI (SK-MEL-5 melanoma) is reported as 2.58 µM, the GI50 (RXF 393 renal) is reported as 0.307 µM and the TGI (RXF 393 renal) is reported as 0.977 µM. The TGI (HOP-18 NSCLC) was 16.8 µM, the TGI (SNB-75 CNS) was over 24 µM and the TGI (CAKI-1 renal) was over 100 µM. It also gave a TGI (SK-MEL-2 melanoma) of 4.12 µM, a TGI (SW-620 colon) of 1.62 µM and a TGI (M14 melanoma) of 3.17 µM. It also gave a TGI (SNB-78 CNS) of over 100 µM, a TGI (SNB-19 CNS) of 8.28 µM and a TGI (KM20L2 colon) of 10.7 µM.
In the case of `O=C(O)c1ccc(C2=Cc3cc(Cl)ccc3OC2)cc1`, the TGI (SK-MEL-5 melanoma) is reported as over 100 µM, the TGI (RXF 393 renal) is reported as over 100 µM and the TGI (HOP-18 NSCLC) is reported as over 100 µM. For the same compound, the TGI (SNB-75 CNS) was over 100 µM, the TGI (CAKI-1 renal) was over 100 µM and the TGI (SK-MEL-2 melanoma) was over 100 µM. It also gave a TGI (SW-620 colon) of over 100 µM, a TGI (M14 melanoma) of over 100 µM and a TGI (SNB-78 CNS) of over 100 µM. For the same compound, the TGI (SNB-19 CNS) was over 100 µM and the TGI (KM20L2 colon) was over 100 µM.
Work on `NC1=Nc2cc(Cl)ccc2Sc2nc3ccccc3n21` yielded a TGI (SK-MEL-5 melanoma) of over 100 µM, a TGI (RXF 393 renal) of over 100 µM and a TGI (MDA-N) of over 100 µM. It also gave a TGI (SNB-75 CNS) of over 86.4 µM, a TGI (CAKI-1 renal) of over 100 µM and a TGI (SK-MEL-2 melanoma) of over 100 µM. For the same compound, the TGI (SW-620 colon) was over 100 µM, the TGI (M14 melanoma) was over 100 µM and the TGI (SNB-19 CNS) was over 100 µM.
In the case of `C=C1C(=O)O[C@@H]2[C@H](O)[C@@H](C)[C@@H]3C=CC(=O)[C@@]3(C)[C@@H](OC(=O)/C(C)=C/C)[C@H]12`, the TGI (SK-MEL-5 melanoma) is reported as 4.43 µM, the TGI (RXF 393 renal) is reported as 1.14 µM and the TGI (HOP-18 NSCLC) is reported as 4.75 µM. For the same compound, the TGI (SNB-75 CNS) was 3.63 µM, the TGI (CAKI-1 renal) was 2.02 µM and the TGI (SK-MEL-2 melanoma) was 2.78 µM. The TGI (SW-620 colon) was 1.14 µM, the TGI (SNB-78 CNS) was 8.03 µM and the TGI (SNB-19 CNS) was 6.92 µM. For the same compound, the TGI (KM20L2 colon) was 5.54 µM.
Compound `C[C@@H]1C(=O)C[C@H]2C(C)(C)CCC[C@]2(C)[C@@]1(O)CCc1ccoc1` has a TGI (SK-MEL-5 melanoma) of over 100 µM, a TGI (RXF 393 renal) of over 100 µM and a TGI (MDA-N) of over 100 µM. The TGI (SNB-75 CNS) was over 100 µM, the TGI (CAKI-1 renal) was over 100 µM and the TGI (SK-MEL-2 melanoma) was over 100 µM. For the same compound, the TGI (SW-620 colon) was over 100 µM, the TGI (M14 melanoma) was over 100 µM and the TGI (SNB-19 CNS) was over 100 µM.
